Among the data in patent US11053242B2, “[9,10-dimethoxy-3-(2-methylpropyl)-1H,2H,3H,4H,6H,7H,11BH-pyrido-[2,1-a]isoquinolin-2-yl]methanol and compounds, compositions and methods relating thereto” (Neurocrine Biosciences, Inc., priority 2015, dated 2021) are Ki values, retold here.

Where only a bound is given, the exact number is not on record here.

In the experiment the target is VMAT2 (human platelet homogenate) (Homo sapiens (Human), UniProt Q05940). Nature of the experiment: Human VMAT2 Ki, slightly modified competition binding procedure (Table 11).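 Also: competition binding with 90 min incubation at 25 °C, after which filter-retained radioligand was measured by scintillation counting.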 Particulars: 10 nM 3H-dihydrotetrabenazine.
VMAT2 (human platelet homogenate), sequence (Q05940 whole entry): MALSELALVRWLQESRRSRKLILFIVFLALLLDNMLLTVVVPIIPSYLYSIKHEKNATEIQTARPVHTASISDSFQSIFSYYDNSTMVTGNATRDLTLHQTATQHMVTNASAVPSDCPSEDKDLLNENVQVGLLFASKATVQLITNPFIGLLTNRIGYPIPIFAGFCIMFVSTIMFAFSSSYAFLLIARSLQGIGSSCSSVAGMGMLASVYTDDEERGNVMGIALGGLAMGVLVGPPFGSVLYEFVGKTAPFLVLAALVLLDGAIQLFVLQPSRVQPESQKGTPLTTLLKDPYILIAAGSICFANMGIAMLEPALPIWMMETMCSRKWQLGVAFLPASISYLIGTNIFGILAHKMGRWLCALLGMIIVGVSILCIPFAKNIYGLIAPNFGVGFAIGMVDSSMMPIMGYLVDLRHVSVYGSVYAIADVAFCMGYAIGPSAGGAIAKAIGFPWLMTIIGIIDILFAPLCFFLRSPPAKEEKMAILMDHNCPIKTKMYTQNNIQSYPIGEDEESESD
Protocol: Following incubation at 25° C. for 90 minutes, bound radioligand was collected by rapid filtration onto GF/B glass fiber filters using a Unifilter-96 Harvester (PerkinElmer). Filter plates were pre-treated with 0.1% polyethylenimine and allowed to dry overnight, and following harvesting the filter plates were washed with 800 d VMAT2 binding buffer. Bound radioligand was quantified by scintillation counting using a Topcount NXT (PerkinElmer).
As usually defined, the Ki is a measure of affinity in units of concentration, obtained from inhibition or displacement. In the case of `COc1cc2c(cc1OC)[C@H]1C[C@@H](COC(=O)[C@H](N)c3ccc(C(F)(F)F)cc3)[C@H](CC(C)C)CN1CC2` [Compound 4-30, [(2R,3S,11bR)-9,10-dimethoxy-3-(2-methylpropyl)-1H,2H,3H,4H,6H,7H,11bH-pyrido[2,1-a]isoquinolin-2-yl]methyl (2R)-2-amino-2-[4-(trifluoromethyl)phenyl]acetate], the Ki lay within 10 to 500 nM.
Under `COc1cc2c(cc1OC)[C@H]1C[C@@H](COC(=O)C3COCCN3)[C@H](CC(C)C)CN1CC2` (stereo partly drawn) [Compound 4-32, [(2R,3S,11bR)-9,10-dimethoxy-3-(2-methylpropyl)-1H,2H,3H,4H,6H,7H,11bH-pyrido[2,1-a]isoquinolin-2-yl]methyl morpholine-3-carboxylate] stands 10 to 500 nM; under `COc1cc2c(cc1OC)[C@H]1C[C@@H](COC(=O)[C@@H](N)c3ccccc3)[C@H](CC(C)C)CN1CC2` [Compound 4-33, [(2R,3S,11bR)-9,10-dimethoxy-3-(2-methylpropyl)-1H,2H,3H,4H,6H,7H,11bH-pyrido[2,1-a]isoquinolin-2-yl]methyl (2S)-2-amino-2-phenylacetate], 10 to 500 nM.
With `COc1cc2c(cc1OC)[C@H]1C[C@@H](COC(=O)CC3CCCCN3)[C@H](CC(C)C)CN1CC2` (stereo partly drawn) [Compound 4-34, [(2R,3S,11bR)-9,10-dimethoxy-3-(2-methylpropyl)-1H,2H,3H,4H,6H,7H,11bH-pyrido[2,1-a]isoquinolin-2-yl]methyl 2-(piperidin-2-yl)acetate] the figure was less than 10 nM; with `COc1cc2c(cc1OC)[C@H]1C[C@@H](COC(=O)C3(C)CCNCC3)[C@H](CC(C)C)CN1CC2` [Compound 4-35, [(2R,3S,11bR)-9,10-dimethoxy-3-(2-methylpropyl)-1H,2H,3H,4H,6H,7H,11bH-pyrido[2,1-a]isoquinolin-2-yl]methyl 4-methylpiperidine-4-carboxylate], less than 10 nM.
With `COc1cc2c(cc1OC)[C@H]1C[C@@H](COC(=O)CCN3CCNCC3)[C@H](CC(C)C)CN1CC2` [Compound 4-37, [(2R,3S,11bR)-9,10-dimethoxy-3-(2-methylpropyl)-1H,2H,3H,4H,6H,7H,11bH-pyrido[2,1-a]isoquinolin-2-yl]methyl 3-(piperazin-1-yl)propanoate] the figure was less than 10 nM.
In turn, `COc1cc2c(cc1OC)[C@H]1C[C@@H](COC(=O)N3CCN(C)CC3)[C@H](CC(C)C)CN1CC2` [Compound 5-7, [(2R,3S,11bR)-9,10-dimethoxy-3-(2-methylpropyl)-1H,2H,3H,4H,6H,7H,11bH-pyrido[2,1-a]isoquinolin-2-yl]methyl 4-methylpiperazine-1-carboxylate] came in with a Ki greater than 500 nM.
In turn, `COc1cc2c(cc1OC)[C@H]1C[C@@H](COC(=O)N3CCN(S(C)(=O)=O)CC3)[C@H](CC(C)C)CN1CC2` [Compound 5-15, [(2R,3S,11bR)-9,10-dimethoxy-3-(2-methylpropyl)-1H,2H,3H,4H,6H,7H,11bH-pyrido[2,1-a]isoquinolin-2-yl]methyl 4-methanesulfonylpiperazine-1-carboxylate] displayed an inhibitory constant (Ki) of 10 to 500 nM.
`COc1cc2c(cc1OC)[C@H]1C[C@@H](COC(=O)N3CCN(C4CCCCC4)CC3)[C@H](CC(C)C)CN1CC2` [Compound 5-18, [(2R,3S,11bR)-9,10-dimethoxy-3-(2-methylpropyl)-1H,2H,3H,4H,6H,7H,11bH-pyrido[2,1-a]isoquinolin-2-yl]methyl 4-cyclohexylpiperazine-1-carboxylate] showed a Ki of less than 10 nM.
Under `COc1cc2c(cc1OC)[C@H]1C[C@@H](COC(=O)N3CCNC(=O)C3C)[C@H](CC(C)C)CN1CC2` (stereo partly drawn) [Compound 5-21, [(2R,3S,11bR)-9,10-dimethoxy-3-(2-methylpropyl)-1H,2H,3H,4H,6H,7H,11bH-pyrido[2,1-a]isoquinolin-2-yl]methyl 2-methyl-3-oxopiperazine-1-carboxylate] stands less than 10 nM; under `COc1cc2c(cc1OC)[C@H]1C[C@@H](COC(=O)N3C[C@@H]4C[C@H]3CO4)[C@H](CC(C)C)CN1CC2` [Compound 5-24, [(2R,3S,11bR)-9,10-dimethoxy-3-(2-methylpropyl)-1H,2H,3H,4H,6H,7H,11bH-pyrido[2,1-a]isoquinolin-2-yl]methyl(1S,4S)-2-oxa-5-azabicyclo[2.2.1]heptane-5-carboxylate], less than 10 nM; under `COc1cc2c(cc1OC)[C@H]1C[C@@H](COC(=O)N(C)C(C)C(=O)O)[C@H](CC(C)C)CN1CC2` (stereo partly drawn) [Compound 5-28, 2-[({[(2R,3S,11bR)-9,10-dimethoxy-3-(2-methylpropyl)-1H,2H,3H,4H,6H,7H,11bH-pyrido[2,l-a]isoquinolin-2-yl]methoxy}carbonyl)(methyl)amino]propanoic acid], greater than 500 nM.
With `COc1cc2c(cc1OC)[C@H]1C[C@@H](COC(=O)N(C)C)[C@H](CC(C)C)CN1CC2` [Compound 5-29, [(2R,3S,11bR)-9,10-dimethoxy-3-(2-methylpropyl)-1H,2H,3H,4H,6H,7H,11bH-pyrido[2,1-a]isoquinolin-2-yl]methyl N,N-dimethylcarbamate] the figure was 10 to 500 nM.
Compound `COc1cc2c(cc1OC)[C@H]1C[C@@H](COC(=O)N3CCN(C(C)C)CC3)[C@H](CC(C)C)CN1CC2` [Compound 5-31, [(2R,3S,11bR)-9,10-dimethoxy-3-(2-methylpropyl)-1H,2H,3H,4H,6H,7H,11bH-pyrido[2,1-a]isoquinolin-2-yl]methyl 4-(propan-2-yl)piperazine-1-carboxylate] registered a Ki of less than 10 nM.
With `COc1cc2c(cc1OC)[C@H]1C[C@@H](COC(=O)N[C@@H]3CCCC[C@H]3C(=O)O)[C@H](CC(C)C)CN1CC2` [Compound 5-35, (1R,2R)-2-[({[(2R,3S,11bR)-9,10-dimethoxy-3-(2-methylpropyl)-1H,2H,3H,4H,6H,7H,11bH-pyrido[2,1-a]isoquinolin-2-yl]methoxy}carbonyl)amino]cyclohexane-1-carboxylic acid] the figure was 10 to 500 nM.
With `COc1cc2c(cc1OC)[C@H]1C[C@@H](COC(=O)N3CCO[C@H](C)C3)[C@H](CC(C)C)CN1CC2` [Compound 5-37, [(2R,3S,11bR)-9,10-dimethoxy-3-(2-methylpropyl)-1H,2H,3H,4H,6H,7H,11bH-pyrido[2,1-a]isoquinolin-2-yl]methyl (2R)-2-methylmorpholine-4-carboxylate] the figure was less than 10 nM; with `COc1cc2c(cc1OC)[C@H]1C[C@@H](COC(=O)N3CCO[C@@H](C)C3)[C@H](CC(C)C)CN1CC2` [Compound 5-44, [(2R,3S,11bR)-9,10-dimethoxy-3-(2-methylpropyl)-1H,2H,3H,4H,6H,7H,11bH-pyrido[2,1-a]isoquinolin-2-yl]methyl (2S)-2-methylmorpholine-4-carboxylate], less than 10 nM.
With `COc1cc2c(cc1OC)[C@H]1C[C@@H](COC(=O)N[C@H](C)C(=O)O)[C@H](CC(C)C)CN1CC2` [Compound 5-45, (2R)-2-[({[(2R,3S,11bR)-9,10-dimethoxy-3-(2-methylpropyl)-1H,2H,3H,4H,6H,7H,11bH-pyrido[2,1-a]isoquinolin-2-yl]methoxy}carbonyl)amino]propanoic acid] the figure was greater than 500 nM; with `COc1cc2c(cc1OC)[C@H]1C[C@@H](COC(=O)N3CCN4CCCCCC4C3)[C@H](CC(C)C)CN1CC2` (stereo partly drawn) [Compound 5-48, [(2R,3S,11bR)-9,10-dimethoxy-3-(2-methylpropyl)-1H,2H,3H,4H,6H,7H,11bH-pyrido[2,1-a]isoquinolin-2-yl]methyl decahydropiperazino[1,2-a]azepine-2-carboxylate], less than 10 nM.
For the compound `COc1cc2c(cc1OC)[C@H]1C[C@@H](COC(=O)N3CCN(C)C[C@H]3C)[C@H](CC(C)C)CN1CC2` [Compound 5-50, [(2R,3S,11bR)-9,10-dimethoxy-3-(2-methylpropyl)-1H,2H,3H,4H,6H,7H,11bH-pyrido[2,1-a]isoquinolin-2-yl]methyl (2R)-2,4-dimethylpiperazine-1-carboxylate], the inhibitory constant (Ki) was less than 10 nM.
As for `COc1cc2c(cc1OC)[C@H]1C[C@@H](COC(=O)N3C[C@@H](C)O[C@@H](C)C3)[C@H](CC(C)C)CN1CC2` [Compound 5-53, [(2R,3S,11bR)-9,10-dimethoxy-3-(2-methylpropyl)-1H,2H,3H,4H,6H,7H,11bH-pyrido[2,1-a]isoquinolin-2-yl]methyl (2R,6S)-2,6-dimethylmorpholine-4-carboxylate], the Ki is 10 to 500 nM.
Under `COc1cc2c(cc1OC)[C@H]1C[C@@H](COC(=O)N3C[C@H](C)NC[C@H]3C)[C@H](CC(C)C)CN1CC2` [Compound 6-2, [(2R,3S,11bR)-9,10-dimethoxy-3-(2-methylpropyl)-1H,2H,3H,4H,6H,7H,11bH-pyrido[2,1-a]isoquinolin-2-yl]methyl (2R,5S)-2,5-dimethylpiperazine-1-carboxylate] stands less than 10 nM.
Under `COc1cc2c(cc1OC)[C@H]1C[C@@H](COC(=O)N3CCN[C@H](C#N)C3)[C@H](CC(C)C)CN1CC2` [Compound 6-9, [(2R,3S,11bR)-9,10-dimethoxy-3-(2-methylpropyl)-1H,2H,3H,4H,6H,7H,11bH-pyrido[2,1-a]isoquinolin-2-yl]methyl (3S)-3-cyanopiperazine-1-carboxylate] stands less than 10 nM.
With `COc1cc2c(cc1OC)[C@H]1C[C@@H](COC(=O)N3CC(C)NCC3C)[C@H](CC(C)C)CN1CC2` (stereo partly drawn) [Compound 6-14, [(2R,3S,11bR)-9,10-dimethoxy-3-(2-methylpropyl)-1H,2H,3H,4H,6H,7H,11bH-pyrido[2,1-a]isoquinolin-2-yl]methyl 2,5-dimethylpiperazine-1-carboxylate], the inhibitory constant (Ki) was less than 10 nM.
Under `COc1cc2c(cc1OC)[C@H]1C[C@@H](COC(=O)OC(C)C)[C@H](CC(C)C)CN1CC2` [Compound 8-1, [(2R,3S,11bR)-9,10-dimethoxy-3-(2-methylpropyl)-1H,2H,3H,4H,6H,7H,11bH-pyrido[2,1-a]isoquinolin-2-yl]methyl propan-2-yl carbonate] stands 10 to 500 nM.
In the case of `COC[C@@H]1C[C@@H]2c3cc(OC)c(OC)cc3CCN2C[C@H]1CC(C)C` [Compound 9-1, (2R,3S,11bR)-9,10-dimethoxy-2-(methoxymethyl)-3-(2-methylpropyl)-1H,2H,3H,4H,6H,7H,11bH-pyrido[2,1-a]isoquinoline], the inhibition constant (Ki) was less than 10 nM.
